# Laboratory results published in US20040171566A1, “Antisense modulation of p38 mitogen activated protein kinase expression” (priority 1999, published 2004).
# In the oligonucleotide strings, read from the 5' end, every base follows the letter of its sugar. An asterisk marks phosphorothioate; unmarked linkages are phosphodiester. Other units and linkages are bracketed, terminal groups are in braces. A string of capitals states the bases alone. e = 2'-O-(2-methoxyethyl) (MOE); [5mC] = 5-methylcytosine; d = 2'-deoxy (DNA)
# How the values were obtained:
# [1] = system: rat p38α mRNA; test: Inhibition of rat p38α mRNA expression in A-10 cells, Northern blot; assay type: cell-based; conditions: Rat A-10 cells, 200 nM oligonucleotide, 24 hours
# Method: Rat p38α antisense oligonucleotides were screened in Rat A-10 cells. A-10 cells (American Type Culture Collection, Manassas, Va.) were grown in high-glucose DMEM (Life Technologies, Gaithersburg, Md.) medium containing 10% fetal calf serum (FCS). Cells were treated with oligonucleotide as described in Example 2. Oligonucleotide concentration was 200 nM. mRNA was isolated 24 hours after time zero and quantitated by Northern blot as described in Example 2.
# [2] = system: mouse p38β mRNA; test: Inhibition of mouse p38β mRNA expression in bEND.3 cells, Northern blot; assay type: cell-based
# Method: (§1) bEND.3, a mouse endothelial cell line (gift of Dr. Werner Risau; see Montesano et al., Cell, 1990, 62, 435, and Stepkowski et al., J. Immunol., 1994, 153, 5336) were grown in high-glucose DMEM (Life Technologies, Gaithersburg, Md.) medium containing 10% fetal bovine serum (FBS) and 1% Penicillin/Streptomycinin. Cells were plated at approximately 2×10^5 cells per 100 mm dish. Within 48 hours of plating, the cells were washed with phosphate-buffered saline (Life Technologies). Then, Opti-MEM7 medium containing 3 μg/mL LIPOFECTIN^7 and an appropriate amount of oligonucleotide were added to the cells. As a control, cells were treated with LIPOFECTIN^7 without oligonucleotide under the same conditions and for the same times as the oligonucleotide-treated samples.
# (§2) After 4 hours at 37° C., the medium was replaced with high glucose DMEM medium containing 10% FBS and 1% Penicillin/Streptomycinin. The cells were typically allowed to recover overnight (about 18 to 24 hours) before RNA and/or protein assays were performed as described in Example 2. The p38α, p38β and G3PDH probes used were identical to those described in Example 2.
# (§3) Rat p38α antisense oligonucleotides were screened in bEND.3 cells for inhibition of p38α and p38β mRNA expression. The concentration of oligonucleotide used was 100 nM. Oligonucleotides 21844 (SEQ ID NO. 47), 21845 (SEQ ID NO. 48), 21872 (SEQ ID NO. 51), 21873 (SEQ ID NO. 52), 21875 (SEQ ID NO. 54), and 21876 (SEQ ID NO.
# (§4) Mouse p38β antisense sequences were screened in bEND.3 cells as described in Example 4.
# [3] = system: mouse p38α mRNA; test: Inhibition of mouse p38α mRNA expression in bEND.3 cells, Northern blot; assay type: cell-based
# Method: as §1, §2, §3, §4
# [4] = system: human p38β mRNA; test: Human p38β mRNA expression in T-24 cells
# [5] = system: human p38β mRNA; test: Inhibition of human p38β mRNA expression in HUVEC cells, Northern blot; assay type: cell-based
# Method: The human Jurkat T-cell line (American Type Culture Collection, Manassas, Va.) was maintained in RPMI 1640 growth media supplemented with 10% fetal bovine serum (FBS; Hyclone, Logan, Utah). HUVEC cells (Clonetics, San Diego, Calif.) were cultivated in endothelial basal media supplemented with 10% FBS (Hyclone, Logan, Utah).
# (§5) HUVEC cells were allowed to reach 75% confluency prior to use. The cells were washed twice with warm (37° C.) OPTI-MEM™ (Life Technologies). The cells were incubated in the presence of the appropriate culture medium, without the growth factors added, and the oligonucleotide formulated in LIPOFECTIN7 (Life Technologies), a 1:1 (w/w) liposome formulation of the cationic lipid N-[1-(2,3-dioleyloxy)propyl]-n,n,n-trimethylammonium chloride (DOTMA), and dioleoyl phosphotidylethanolamine (DOPE) in membrane filtered water. HUVEC cells were treated with 100 nM oligonucleotide in 10 μg/ml LIPOFECTIN7. Treatment was for four hours.
# (§6) Total mRNA was isolated using the RNEASY7 Mini Kit (Qiagen, Valencia, Calif.; similar kits from other manufacturers may also be used), separated on a 1% agarose gel, transferred to HYBOND™-N+ membrane (Amersham Pharmacia Biotech, Piscataway, N.J.), a positively charged nylon membrane, and probed. p38 MAPK probes were made using the Prime-A-Gene7 kit (Promega Corporation, Madison, Wis.), a random primer labeling kit, using mouse p38α or p38β cDNA as a template. A glyceraldehyde 3-phosphate dehydrogenase (G3PDH) probe was purchased from Clontech (Palo Alto, Calif.), Catalog Number 9805-1. The fragments were purified from low-melting temperature agarose, as described in Maniatis, T., et al., Molecular Cloning: A Laboratory Manual, 1989. The G3PDH probe was labeled with REDIVUE™ ^32P-dCTP (Amersham Pharmacia Biotech, Piscataway, N.J.) and Strip-EZ labelling kit (Ambion, Austin, Tex.). mRNA was quantitated by a PhosphoImager (Molecular Dynamics, Sunnyvale, Calif.).
# Every oligonucleotide tested gave at least 50% inhibition.
# Oligonucleotides 17893 (SEQ ID NO. 27), 17899 (SEQ ID NO:33), 17904 (SEQ ID NO. 38), and 17907 (SEQ ID NO. 41) were chosen for dose response studies. HUVEC cells were cultured and treated as described in Example 2 except that the oligonucleotide concentration was varied as shown in Table 6. The Lipofectin7/Oligo ratio was maintained at 3 μg Lipofectin7/100 nM oligo, per ml. mRNA was measured by Northern blot as described in Example 2.
# [6] = system: human p38α mRNA; test: Effect of human p38β oligonucleotides on human p38α mRNA in HUVEC cells; assay type: cell-based
# Method: as §5
# as §6, with “A glyceraldehyde 3-phosphate dehydrogenase (G3PDH) probe was purchased from Clontech (Palo Alto, Calif.), Catalog Number 9805-1. The fragments were purified from low-melting temperature agarose, as described in Maniatis, T., et al., Molecular Cloning: A Laboratory Manual, 1989.” left out, “Calif.). […]” for “Calif.).”
# [7] = system: human p38α mRNA; test: Human p38α mRNA expression in T-24 cells; conditions: initial screen of human p38β oligonucleotides
# [8] = system: IL-6 secretion; test: IL-6 secretion by IL-1 stimulated bEND.3 cells, ELISA; assay type: cell-based; conditions: DOSE 100, 1 ng/mL mouse IL-1 for 6 hours, 48 hours after oligonucleotide
# Method: p38 MAPK antisense oligonucleotides were tested for their ability to reduce IL-6 secretion. bEND.3 cells were cultured and treated as described in Example 4 except that 48 hours after oligonucleotide treatment, cells were stimulated for 6 hours with 1 ng/mL recombinant mouse IL-1 (R&D Systems, Minneapolis, Minn.). IL-6 was measured in the medium using an IL-6 ELISA kit (Endogen Inc., Woburn, Mass.).
# [9] = 100 nM rat p38α antisense oligonucleotide
# [10] = 100 nM oligonucleotide in 10 μg/ml LIPOFECTIN, four hours, Northern blot
substance,measurement,setting,value
GoGoAoToGsGsAsCsAsGsAsAsCsAsGsAoAoGoCoA (antisense eGeGeAeTeG*dG*dA*d[5mC]*dA*dG*dA*dA*d[5mC]*dA*dG*eAeAeGe[5mC]eA) [ISIS 21874],% p38α mRNA EXPRESSION,[1],22%
same,% p38β mRNA Inhibition,[2]; [9],21%
same,% p38α mRNA INHIBITION,[3]; [9],38%
GoGoCoAoCsAsAsAsGsCsTsAsAsTsGsAoCoToToC (antisense eGeGe[5mC]eAe[5mC]*dA*dA*dA*dG*d[5mC]*dT*dA*dA*dT*dG*eAe[5mC]eTeTe[5mC]) [ISIS 21872],% p38α mRNA EXPRESSION,[1],13%
same,% p38β mRNA Inhibition,[2]; dose 100 nM (dose response),1%
same,% p38α mRNA INHIBITION,[3]; dose 25 nM,35%
same,% p38α mRNA INHIBITION,[3]; dose 100 nM (dose response),76%
GoGoToAoAsGsCsTsTsCsTsGsAsCsAsCoToToCoA (antisense eGeGeTeAeA*dG*d[5mC]*dT*dT*d[5mC]*dT*dG*dA*d[5mC]*dA*e[5mC]eTeTe[5mC]eA) [ISIS 21845],% p38α mRNA EXPRESSION,[1],25%
"TGCGGCACCTCCCACACGGT (chimeric, phosphorothioate, further chemistry not given here) [ISIS 17893]",% p38β mRNA Expression,"[4]; dose 50 nM, relative to control oligonucleotide = 100%",28%
same,% p38β mRNA Expression,"[4]; dose 100 nM, relative to control oligonucleotide = 100%",27%
same,% p38β mRNA Expression,"[4]; dose 200 nM, relative to control oligonucleotide = 100%",16%
same,% p38β mRNA Expression,[4]; initial screen of human p38β oligonucleotides,31%
same,% mRNA EXPRESSION,[5]; [10],4%
same,% mRNA Inhibition,[5]; [10],96%
same,% mRNA EXPRESSION,[5]; dose 10 nM,37%
same,% mRNA Inhibition,[5]; dose 10 nM,63%
same,% mRNA EXPRESSION,[5]; dose 25 nM,18%
same,% mRNA Inhibition,[5]; dose 25 nM,82%
same,% mRNA EXPRESSION,[5]; dose 50 nM,16%
same,% mRNA Inhibition,[5]; dose 50 nM,84%
same,% mRNA EXPRESSION,[5]; dose 100 nM,19%
same,% mRNA Inhibition,[5]; dose 100 nM,81%
same,IC50 for p38α compared to p38β,[6],approximately 4 fold
same,effect on p38α mRNA expression,[6],showed an effect on p38α mRNA expression
same,% p38α mRNA EXPRESSION,[7],61%
ToCoToToCsCsAsAsTsGsGsAsGsAsAsAoCoToGoG (antisense eTe[5mC]eTeTe[5mC]*d[5mC]*dA*dA*dT*dG*dG*dA*dG*dA*dA*eAe[5mC]eTeGeG) [ISIS 21881],% p38α mRNA EXPRESSION,[1],31%
ToGoCoAoCsCsAsCsAsAsGsCsAsCsCsToGoGoAoG (antisense eTeGe[5mC]eAe[5mC]*d[5mC]*dA*d[5mC]*dA*dA*dG*d[5mC]*dA*d[5mC]*d[5mC]*eTeGeGeAeG) [ISIS 21878],% p38α mRNA EXPRESSION,[1],35%
same,% p38β mRNA Inhibition,[2]; [9],10%
same,% p38α mRNA INHIBITION,[3]; [9],25%
ToToAoCoAsGsCsCsAsCsCsTsTsCsTsGoGoCoGoC (antisense eTeTeAe[5mC]eA*dG*d[5mC]*d[5mC]*dA*d[5mC]*d[5mC]*dT*dT*d[5mC]*dT*eGeGe[5mC]eGe[5mC]) [ISIS 100804],% IL-6 INHIBITION,[8],57%
same,% p38α mRNA INHIBITION,"[3]; mouse p38β antisense oligonucleotides, screened as in Example 4",18%
